Numbered stars: 1 amine (or outer) side, 2 acyl side, 3 side chain; on linkers, the order of the positions; unused ones are H or OH. Square brackets hold non-standard residues; d marks the D form. Side chains are listed from the residue outwards. Peptide text beside a SMILES is read from it. * marks the point of attachment. C20 diacid = O=C(O)CCCCCCCCCCCCCCCCCCC(=O)*; C18 diacid = O=C(O)CCCCCCCCCCCCCCCCC(=O)*; αMePhe(2-F) = C[C@](N)(Cc1ccccc1F)C(=O)O; γGlu = O=C(O)[C@H](CCC(=O)[*:2])N[*:1]; αMeL = CC(C)C[C@](C)(N)C(=O)O; Dab = NCC[C@H](N)C(=O)O; Dap = NC[C@H](N)C(=O)O; AEEA = NCCOCCOCC(=O)O; Aib = CC(C)(N)C(=O)O
Key:
[1] = target: human GLP-1 receptor (GLP-1R) (Homo sapiens, UniProt P43220); experiment: cAMP pharmacological functional assay in presence of casein, hGLP-1R; format: cell-based; conditions: HEK293 cells expressing hGLP-1R, 0.1% Casein, geometric mean; read-out: hGLP1R cAMP Rel EC50 nM (SEM, n)
human GLP-1 receptor (GLP-1R), sequence (P43220 24-463): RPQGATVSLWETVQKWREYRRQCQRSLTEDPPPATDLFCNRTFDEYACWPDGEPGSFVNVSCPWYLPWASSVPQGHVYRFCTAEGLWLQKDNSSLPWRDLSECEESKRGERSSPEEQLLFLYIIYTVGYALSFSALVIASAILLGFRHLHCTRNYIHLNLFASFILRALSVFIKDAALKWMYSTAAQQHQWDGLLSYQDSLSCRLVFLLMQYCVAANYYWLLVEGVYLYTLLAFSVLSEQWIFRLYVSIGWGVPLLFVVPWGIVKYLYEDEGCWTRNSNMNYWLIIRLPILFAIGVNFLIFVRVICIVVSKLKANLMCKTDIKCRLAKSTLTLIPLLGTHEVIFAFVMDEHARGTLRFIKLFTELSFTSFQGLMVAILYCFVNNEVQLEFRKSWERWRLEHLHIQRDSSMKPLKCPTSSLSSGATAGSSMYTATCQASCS

[2] = target: T1, gastric inhibitory peptide receptor (GIPR) (Homo sapiens, UniProt P48546); experiment: cAMP pharmacological functional assay in presence of casein, hGIPR; format: cell-based; conditions: HEK293 cells expressing hGIPR, 0.1% Casein, geometric mean; read-out: hGIPR cAMP Rel EC50 nM (SEM, n)
T1 sequence (P48546 22-466): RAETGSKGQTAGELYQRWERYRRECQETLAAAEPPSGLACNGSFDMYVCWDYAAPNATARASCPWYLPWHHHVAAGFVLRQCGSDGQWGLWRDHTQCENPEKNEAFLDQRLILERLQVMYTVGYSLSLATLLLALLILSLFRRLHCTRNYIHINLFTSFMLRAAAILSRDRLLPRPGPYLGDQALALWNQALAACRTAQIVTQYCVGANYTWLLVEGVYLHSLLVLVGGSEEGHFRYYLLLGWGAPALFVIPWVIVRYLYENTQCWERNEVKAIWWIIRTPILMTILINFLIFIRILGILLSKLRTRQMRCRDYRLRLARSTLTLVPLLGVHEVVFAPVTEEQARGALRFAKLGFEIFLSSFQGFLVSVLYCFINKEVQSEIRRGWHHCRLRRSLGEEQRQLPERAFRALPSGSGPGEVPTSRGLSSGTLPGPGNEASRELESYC

| Structure (SMILES) | EC50 [1] [nM] | EC50 [2] [nM] |
| --- | --- | --- |
| CC[C@H](C)[C@H](NC(=O)[C@H](CC(C)C)NC(=O)[C@H](Cc1ccc(O)cc1)NC(=O)[C@@H](CCC(=O)O)NC(=O)[C@@H](NC(=O)[C@H](Cc1ccccc1)NC(=O)[C@@H](NC(=O)C(C)(C)NC(=O)[C@H](CCC(N)=O)NC(=O)[C@H](C)NC(=O)[C@H](CCCCNC(=O)COCCOCCNC(=O)COCCOCCNC(=O)CC[C@H](NC(=O)CCCCCCCCCCCCCCCCCCC(=O)O)C(=O)O)NC(=O)[C@H](CCN)NC(=O)[C@H](CC(=O)O)NC(=O)[C@H](CC(C)C)NC(=O)[C@](C)(CC(C)C)NC(=O)[C@@H](NC(=O)[C@H](CO)NC(=O)[C@H](Cc1c[nH]cn1)NC(=O)[C@H](CC(=O)O)NC(=O)[C@H](CO)NC(=O)[C@@H](NC(=O)[C@](C)(Cc1ccccc1F)NC(=O)[C@@H](NC(=O)CNC(=O)[C@H](CCC(=O)O)NC(=O)C(C)(C)NC(=O)[C@@H](N)Cc1ccc(O)cc1)[C@@H](C)O)[C@@H](C)O)[C@@H](C)CC)[C@@H](C)O)[C@@H](C)CC)C(=O)N[C@@H](CCC(=O)O)C(=O)NCC(=O)NCC(=O)N1CCC[C@H]1C(=O)N[C@@H](CO)C(=O)N[C@@H](CO)C(=O)NCC(=O)N[C@@H](C)C(=O)N1CCC[C@H]1C(=O)N1CCC[C@H]1C(=O)N1CCC[C@H]1C(=O)N[C@@H](CO)C(N)=O [Example 172] (H-Y[Aib]EGT[αMePhe(2-F)]TSDHSI[αMeL]LD[Dab]K([AEEA-AEEA-γGlu-C20 diacid])AQ[Aib]TFI[dE]YLIEGGPSSGAPPPS-NH2; N-terminus assumed) | 1.2 | 1.05 |
| CC[C@H](C)[C@H](NC(=O)[C@H](CC(C)C)NC(=O)[C@H](Cc1ccc(O)cc1)NC(=O)[C@@H](CCC(=O)O)NC(=O)[C@@H](NC(=O)[C@H](Cc1ccccc1)NC(=O)[C@@H](NC(=O)C(C)(C)NC(=O)[C@H](CCC(N)=O)NC(=O)[C@H](C)NC(=O)[C@H](CCCCNC(=O)COCCOCCNC(=O)COCCOCCNC(=O)CC[C@H](NC(=O)CCCCCCCCCCCCCCCCCCC(=O)O)C(=O)O)NC(=O)[C@H](CN)NC(=O)[C@H](CC(=O)O)NC(=O)[C@H](CC(C)C)NC(=O)[C@](C)(CC(C)C)NC(=O)[C@@H](NC(=O)[C@H](CO)NC(=O)[C@H](Cc1c[nH]cn1)NC(=O)[C@H](CC(=O)O)NC(=O)[C@H](CO)NC(=O)[C@@H](NC(=O)[C@](C)(Cc1ccccc1F)NC(=O)[C@@H](NC(=O)CNC(=O)[C@H](CCC(=O)O)NC(=O)C(C)(C)NC(=O)[C@@H](N)Cc1ccc(O)cc1)[C@@H](C)O)[C@@H](C)O)[C@@H](C)CC)[C@@H](C)O)[C@@H](C)CC)C(=O)N[C@@H](CCC(=O)O)C(=O)NCC(=O)NCC(=O)N1CCC[C@H]1C(=O)N[C@@H](CO)C(=O)N[C@@H](CO)C(=O)NCC(=O)N[C@@H](C)C(=O)N1CCC[C@H]1C(=O)N1CCC[C@H]1C(=O)N1CCC[C@H]1C(=O)N[C@@H](CO)C(N)=O [Example 173] (H-Y[Aib]EGT[αMePhe(2-F)]TSDHSI[αMeL]LD[Dap]K([AEEA-AEEA-γGlu-C20 diacid])AQ[Aib]TFI[dE]YLIEGGPSSGAPPPS-NH2) | 1.23 | 0.586 |
| CC[C@H](C)[C@H](NC(=O)[C@H](CC(C)C)NC(=O)[C@H](Cc1ccc(O)cc1)NC(=O)[C@@H](CCC(=O)O)NC(=O)[C@@H](NC(=O)[C@H](Cc1ccccc1)NC(=O)[C@@H](NC(=O)C(C)(C)NC(=O)[C@H](CCC(N)=O)NC(=O)[C@H](C)NC(=O)[C@H](CCCCNC(=O)COCCOCCNC(=O)COCCOCCNC(=O)CCCCCCCCCCCCCCCCCCC(=O)O)NC(=O)[C@H](CCC(=O)O)NC(=O)[C@H](CC(=O)O)NC(=O)[C@H](CC(C)C)NC(=O)[C@](C)(CC(C)C)NC(=O)[C@@H](NC(=O)[C@H](CO)NC(=O)[C@H](Cc1c[nH]cn1)NC(=O)[C@H](CC(=O)O)NC(=O)[C@H](CO)NC(=O)[C@@H](NC(=O)[C@](C)(Cc1ccccc1F)NC(=O)[C@@H](NC(=O)CNC(=O)[C@H](CCC(=O)O)NC(=O)C(C)(C)NC(=O)[C@@H](N)Cc1ccc(O)cc1)[C@@H](C)O)[C@@H](C)O)[C@@H](C)CC)[C@@H](C)O)[C@@H](C)CC)C(=O)N[C@@H](CCC(=O)O)C(=O)NCC(=O)NCC(=O)N1CCC[C@H]1C(=O)N[C@@H](CO)C(=O)N[C@@H](CO)C(=O)NCC(=O)N[C@@H](C)C(=O)N1CCC[C@H]1C(=O)N1CCC[C@H]1C(=O)N1CCC[C@H]1C(=O)N[C@@H](CO)C(N)=O [Example 174] (H-Y[Aib]EGT[αMePhe(2-F)]TSDHSI[αMeL]LDEK([AEEA-AEEA-C20 diacid])AQ[Aib]TFI[dE]YLIEGGPSSGAPPPS-NH2) | 0.472 | 0.217 |
| CC[C@H](C)[C@H](NC(=O)[C@H](CC(C)C)NC(=O)[C@H](Cc1ccc(O)cc1)NC(=O)[C@@H](CCC(=O)O)NC(=O)[C@@H](NC(=O)[C@H](Cc1ccccc1)NC(=O)[C@@H](NC(=O)C(C)(C)NC(=O)[C@H](CCC(N)=O)NC(=O)[C@H](C)NC(=O)[C@H](CCCCNC(=O)COCCOCCNC(=O)COCCOCCNC(=O)[C@@H](N)CCCCNC(=O)CCCCCCCCCCCCCCCCCCC(=O)O)NC(=O)[C@H](CCC(=O)O)NC(=O)[C@H](CC(=O)O)NC(=O)[C@H](CC(C)C)NC(=O)C(C)(CC(C)C)NC(=O)[C@@H](NC(=O)[C@H](CO)NC(=O)[C@H](Cc1c[nH]cn1)NC(=O)[C@H](CC(=O)O)NC(=O)[C@H](CO)NC(=O)[C@@H](NC(=O)C(C)(Cc1ccccc1F)NC(=O)[C@@H](NC(=O)CNC(=O)[C@H](CCC(=O)O)NC(=O)C(C)(C)NC(=O)[C@@H](N)Cc1ccc(O)cc1)[C@@H](C)O)[C@@H](C)O)[C@@H](C)CC)[C@@H](C)O)[C@@H](C)CC)C(=O)N[C@@H](CCC(=O)O)C(=O)NCC(=O)NCC(=O)N1CCC[C@H]1C(=O)N[C@@H](CO)C(=O)N[C@@H](CO)C(=O)NCC(=O)N[C@@H](C)C(=O)N1CCC[C@H]1C(=O)N1CCC[C@H]1C(=O)N1CCC[C@H]1C(=O)N[C@@H](CO)C(N)=O (stereo partly drawn) [Example 175] | 1.11 | 0.0881 |
| CC[C@H](C)[C@H](NC(=O)[C@H](CC(C)C)NC(=O)[C@H](Cc1ccc(O)cc1)NC(=O)[C@@H](CCC(=O)O)NC(=O)[C@@H](NC(=O)[C@H](Cc1ccccc1)NC(=O)[C@@H](NC(=O)C(C)(C)NC(=O)[C@H](CCC(N)=O)NC(=O)[C@H](C)NC(=O)[C@H](CCCCNC(=O)COCCOCCNC(=O)COCCOCCNC(=O)[C@@H](N)CCCCNC(=O)CCCCCCCCCCCCCCCCC(=O)O)NC(=O)[C@H](CCC(=O)O)NC(=O)[C@H](CC(=O)O)NC(=O)[C@H](CC(C)C)NC(=O)C(C)(CC(C)C)NC(=O)[C@@H](NC(=O)[C@H](CO)NC(=O)[C@H](Cc1c[nH]cn1)NC(=O)[C@H](CC(=O)O)NC(=O)[C@H](CO)NC(=O)[C@@H](NC(=O)C(C)(Cc1ccccc1F)NC(=O)[C@@H](NC(=O)CNC(=O)[C@H](CCC(=O)O)NC(=O)C(C)(C)NC(=O)[C@@H](N)Cc1ccc(O)cc1)[C@@H](C)O)[C@@H](C)O)[C@@H](C)CC)[C@@H](C)O)[C@@H](C)CC)C(=O)N[C@@H](CCC(=O)O)C(=O)NCC(=O)NCC(=O)N1CCC[C@H]1C(=O)N[C@@H](CO)C(=O)N[C@@H](CO)C(=O)NCC(=O)N[C@@H](C)C(=O)N1CCC[C@H]1C(=O)N1CCC[C@H]1C(=O)N1CCC[C@H]1C(=O)N[C@@H](CO)C(N)=O (stereo partly drawn) [Example 176] | 1.07 | 0.523 |
| CC[C@H](C)[C@H](NC(=O)[C@H](CC(C)C)NC(=O)[C@H](Cc1ccc(O)cc1)NC(=O)[C@@H](CCC(=O)O)NC(=O)[C@@H](NC(=O)[C@H](Cc1ccccc1)NC(=O)[C@H](Cc1c[nH]cn1)NC(=O)C(C)(C)NC(=O)[C@H](CCC(N)=O)NC(=O)[C@H](C)NC(=O)[C@H](CCCCNC(=O)COCCOCCNC(=O)COCCOCCNC(=O)CC[C@H](NC(=O)CCCCCCCCCCCCCCCCC(=O)O)C(=O)O)NC(=O)[C@H](CCC(=O)O)NC(=O)[C@H](CC(=O)O)NC(=O)[C@H](CC(C)C)NC(=O)[C@](C)(CC(C)C)NC(=O)[C@@H](NC(=O)[C@H](CO)NC(=O)[C@H](Cc1c[nH]cn1)NC(=O)[C@H](CC(=O)O)NC(=O)[C@H](CO)NC(=O)[C@@H](NC(=O)[C@](C)(Cc1ccccc1F)NC(=O)[C@@H](NC(=O)CNC(=O)[C@H](CCC(=O)O)NC(=O)C(C)(C)NC(=O)[C@@H](N)Cc1ccc(O)cc1)[C@@H](C)O)[C@@H](C)O)[C@@H](C)CC)[C@@H](C)CC)C(=O)N[C@@H](CCC(=O)O)C(=O)NCC(=O)NCC(=O)N1CCC[C@H]1C(=O)N[C@@H](CO)C(=O)N[C@@H](CO)C(=O)NCC(=O)N[C@@H](C)C(=O)N1CCC[C@H]1C(=O)N1CCC[C@H]1C(=O)N1CCC[C@H]1C(=O)N[C@@H](CO)C(N)=O [Example 177] (H-Y[Aib]EGT[αMePhe(2-F)]TSDHSI[αMeL]LDEK([AEEA-AEEA-γGlu-C18 diacid])AQ[Aib]HFI[dE]YLIEGGPSSGAPPPS-NH2) | 6.79 | 1.4 |

— patent publication US12252524B2, “GIP/GLP1 co-agonist compounds” (Eli Lilly and Company, priority 2018, dated 2025)
